Literature values, collected in patent publication US20080004440A1, “SCAR TREATMENT USING PROTEIN PHOSPHATASE INHIBITORS” (priority 2006, published 2008).
Counter-ions that a name gives are not always drawn. Like-named read-outs stand apart in the source and are kept apart here. *1 amine or outer side, *2 acyl side, *3 side chain or, on linkers, in order; H or OH if unused. Where a SMILES comes first, the peptide text is derived from it. Bridges are numbered along the chain shown (N, C = ends). [ ]: non-standard residue; d: D form. Adda = CO[C@@H](Cc1ccccc1)[C@@H](C)/C=C(C)/C=C/[C@H](N[*:1])[C@H](C)C(=O)[*:2]; dAsp(3S-Me) = C[C@H](C(=O)[*:3])[C@@H](N[*:1])C(=O)[*:2]; d(γGlu) = O=C(O)[C@@H](CCC(=O)[*:2])N[*:1]; NMeDha = C=C(NC)C(=O)O

Experiments:
[1] = tested on: PP2A; details: cited from earlier work
[2] = tested on: PP2B; details: cited from earlier work
[3] = tested on: PP1; details: cited from earlier work
[4] = tested on: PP2A, PP1, PP2B; details: cited from earlier work
[5] = cited from earlier work

For `C=C1[C@@H](O)[C@@H]2O[C@]3(CC[C@H](/C=C/[C@@H](C)[C@@H]4CC(C)=C[C@@]5(O[C@H](C[C@@](C)(O)C(=O)O)CC[C@H]5O)O4)O3)CC[C@H]2O[C@@H]1[C@@H](O)C[C@H](C)[C@H]1O[C@@]2(CCCCO2)CC[C@H]1C` [Okadaic acid, ammonium salt], the IC50 [1] is listed as 0.1 nM, the IC50 [2] is listed as 5 µM and the IC50 [3] is listed as 10 to 15 nM.

For `COC[C@@H]([C@H](O)[C@H](O)C(=O)NCC[C@H](C)c1nc(/C=C/C[C@@H]2O[C@]3(C[C@@H](O)[C@@H]2C)O[C@H]([C@H](C[C@H](O)[C@H](C)[C@H](O)[C@H](C)/C=C(C)/C(C)=C/C=C/C(C)=C\C#N)OC)[C@H](OP(=O)(O)O)C3(C)C)co1)N(C)C` [Calyculin A], the IC50 [1] is listed as 0.5 to 1 nM, the IC50 [3] is listed as 2 nM and the “Order of inhibition / selectivity among protein phosphatases” value [4] is listed as “Cell-permeable. Phosphorylated polyketide. PP2A ˜ PP1 >> PP2B”. For the same compound, the Cell permeability ([5]; in words) was “Cell-permeable. Phosphorylated polyketide. PP2A ˜ PP1 >> PP2B”.

In the case of Microcystin-RR, the IC50 [1] is given as 1.4 nM and the “Order of inhibition / selectivity among protein phosphatases” value [4] is given as “Cyclic peptide. PP2A ˜ PP1 >> PP2B (IC50 = 1.4 nM”.

For “Protein phosphatase 2A inhibitor I1^PP2A: Protein phosphatase 2A inhibitor; potently inhibits all forms of PP2A”, the Ki ([1]; all forms of PP2A) is given as ~0.1 nM.

In the case of `C=C1C(=O)N[C@H](C)C(=O)N[C@@H](CC(C)C)C(=O)N[C@@H](C(=O)O)[C@H](C)C(=O)N[C@@H](CCCNC(=N)N)C(=O)N[C@@H](/C=C/C(C)=C/[C@H](C)[C@H](Cc2ccccc2)OC)[C@H](C)C(=O)N[C@@H](C(=O)O)CCC(=O)N1C` [Microcystin-LR] (R[Adda][d(γGlu)][NMeDha][dA]L[dAsp(3S-Me)]-OH; lactam N-7), the IC50 [1] is listed as 0.04 nM, the IC50 [3] is listed as 1.7 nM and the “Order of inhibition / selectivity among protein phosphatases” value [4] is listed as “Cyclic peptide. PP2A ˜ PP1 >> PP2B (IC50 for PP2A = 40 pM”.

In the case of `C[C@@](O)(/C=C/[C@H]1CC=CC(=O)O1)[C@@H](C[C@@H](O)\C=C/C=C\C=C\CO)OP(=O)(O)O` [Fostriecin], the IC50 [1] is listed as 3.2 nM and the IC50 ([3]; inhibits PP1 only at higher concentrations) is listed as 131000 nM.

For `O=C(O)[C@@H]1[C@H](C(=O)O)[C@H]2CC[C@@H]1O2` [Endothall], the IC50 [1] is given as 90 nM and the “Order of inhibition / selectivity among protein phosphatases” value ([4]; in words) is given as “specific inhibitor of PP2A”.

In the case of `O=P(O)(O)Oc1cccc2ccccc12` [α-Naphthyl acid Phosphate], the “Order of inhibition / selectivity among protein phosphatases” value ([4]; in words) is listed as “Broad-spectrum protein phosphatase inhibitor”.

In the case of Microcystin-LW, the Cell permeability [5] is listed as “A more cell-permeable analog of Microcystin-LR”.
